What was measured:
Type in all cases: functional
Hs-578T = test: Cytotoxicity against human Hs 578T cells assessed as cell growth at 1 uM after 48 hrs by sulforhodamine B assay relative to control; conditions: read-out: Activity
UO-31 = test: Cytotoxicity against human UO31 cells assessed as cell growth at 1 uM after 48 hrs by sulforhodamine B assay relative to control; conditions: UO-31, 48 h, read-out: Activity
HL-60(TB) [1] = test: Cytotoxicity against human HL-60(TB) cells assessed as cell growth at 0.1 uM after 48 hrs by sulforhodamine B assay relative to control; conditions: HL-60, 48 h, read-out: Activity
CCRF-CEM = test: Cytotoxicity against human CCRF-CEM cells assessed as growth inhibition after 48 hrs by sulforhodamine B assay
OVCAR-3 [2] = test: Cytotoxicity against human OVCAR3 cells assessed as growth inhibition after 48 hrs by sulforhodamine B assay; conditions: OVCAR-3, 48 h
SNB-19 [3] = test: Cytotoxicity against human SNB19 cells assessed as cell growth at 0.1 uM after 48 hrs by sulforhodamine B assay relative to control; conditions: SNB-19, 48 h, read-out: Activity
A549 [4] = test: Cytotoxicity against human A549/ATCC cells assessed as cell growth at 1 uM after 48 hrs by sulforhodamine B assay relative to control; conditions: A549, 48 h, read-out: Activity
SK-OV-3 = test: Cytotoxicity against human SKOV3 cells assessed as cell growth at 100 uM after 48 hrs by sulforhodamine B assay relative to control; conditions: SK-OV-3, 48 h, read-out: Activity
Malme-3M = test: Cytotoxicity against human MALME-3M cells assessed as cell growth at 0.01 uM after 48 hrs by sulforhodamine B assay relative to control; conditions: read-out: Activity
T47D [5] = test: Cytotoxicity against human T47D cells assessed as cell growth at 100 uM after 48 hrs by sulforhodamine B assay relative to control; conditions: read-out: Activity
RPMI-8226 [6] = test: Cytotoxicity against human RPMI8226 cells assessed as cell growth at 0.1 uM after 48 hrs by sulforhodamine B assay relative to control; conditions: RPMI-8226, 48 h, read-out: Activity
RPMI-8226 [7] = test: Cytotoxicity against human RPMI8226 cells assessed as cell growth at 1 uM after 48 hrs by sulforhodamine B assay relative to control; conditions: RPMI-8226, 48 h, read-out: Activity
COLO 205 = test: Cytotoxicity against human COLO205 cells assessed as cell growth at 0.1 uM after 48 hrs by sulforhodamine B assay relative to control; conditions: COLO 205, 48 h, read-out: Activity
SN12C [8] = test: Cytotoxicity against human SN12C cells assessed as cell growth at 10 uM after 48 hrs by sulforhodamine B assay relative to control; conditions: read-out: Activity
A549 [9] = test: Cytotoxicity against human A549/ATCC cells assessed as cell growth at 10 uM after 48 hrs by sulforhodamine B assay relative to control; conditions: A549, 48 h, read-out: Activity
SK-MEL-28 = test: Cytotoxicity against human SK-MEL-28 cells assessed as cell growth at 0.01 uM after 48 hrs by sulforhodamine B assay relative to control; conditions: SK-MEL-28, 48 h, read-out: Activity
A498 = test: Cytotoxicity against human A498 cells assessed as cell growth at 0.01 uM after 48 hrs by sulforhodamine B assay relative to control; conditions: A498, 48 h, read-out: Activity
HL-60(TB) [10] = test: Cytotoxicity against human HL-60(TB) cells assessed as cell growth at 1 uM after 48 hrs by sulforhodamine B assay relative to control; conditions: HL-60, 48 h, read-out: Activity
MOLT-4 = test: Cytotoxicity against human MOLT4 cells assessed as growth inhibition after 48 hrs by sulforhodamine B assay; conditions: MOLT-4, 48 h; for CC50: read-out: LC50 (the source's name)
PC-3 = test: Cytotoxicity against human PC3 cells assessed as cell growth at 0.1 uM after 48 hrs by sulforhodamine B assay relative to control; conditions: PC-3, 48 h, read-out: Activity
RPMI-8226 [11] = test: Cytotoxicity against human RPMI8226 cells assessed as cell growth at 0.01 uM after 48 hrs by sulforhodamine B assay relative to control; conditions: RPMI-8226, 48 h, read-out: Activity
HL-60(TB) [12] = test: Cytotoxicity against human HL-60(TB) cells assessed as growth inhibition after 48 hrs by sulforhodamine B assay; conditions: HL-60, 48 h
T47D [13] = test: Cytotoxicity against human T47D cells assessed as cell growth at 0.1 uM after 48 hrs by sulforhodamine B assay relative to control; conditions: read-out: Activity
OVCAR-3 [14] = test: Cytotoxicity against human OVCAR3 cells assessed as cell growth at 100 uM after 48 hrs by sulforhodamine B assay relative to control; conditions: OVCAR-3, 48 h, read-out: Activity
SN12C [15] = test: Cytotoxicity against human SN12C cells assessed as cell growth at 1 uM after 48 hrs by sulforhodamine B assay relative to control; conditions: read-out: Activity
IGROV-1 [16] = test: Cytotoxicity against human IGROV1 cells assessed as growth inhibition after 48 hrs by sulforhodamine B assay; conditions: IGROV-1, 48 h
NCI/ADR-RES = test: Cytotoxicity against human NCI/ADR-RES cells assessed as cell growth at 0.01 uM after 48 hrs by sulforhodamine B assay relative to control; conditions: read-out: Activity
U-251 [17] = test: Cytotoxicity against human U251 cells assessed as cell growth at 10 uM after 48 hrs by sulforhodamine B assay relative to control; conditions: U-251, 48 h, read-out: Activity
IGROV-1 [18] = test: Cytotoxicity against human IGROV1 cells assessed as cell growth at 10 uM after 48 hrs by sulforhodamine B assay relative to control; conditions: IGROV-1, 48 h, read-out: Activity
A549 [19] = test: Cytotoxicity against human A549/ATCC cells assessed as cell growth at 0.1 uM after 48 hrs by sulforhodamine B assay relative to control; conditions: A549, 48 h, read-out: Activity
NCI-H322M = test: Cytotoxicity against human NCI-H322M cells assessed as cell growth at 100 uM after 48 hrs by sulforhodamine B assay relative to control; conditions: read-out: Activity
MCF7 [20] = test: Cytotoxicity against human MCF7 cells assessed as cell growth at 0.1 uM after 48 hrs by sulforhodamine B assay relative to control; conditions: MCF7, 48 h, read-out: Activity
NCI-H522 = test: Cytotoxicity against human NCI-H522 cells assessed as cell growth at 0.01 uM after 48 hrs by sulforhodamine B assay relative to control; conditions: NCI-H522, 48 h, read-out: Activity
MCF7 [21] = test: Cytotoxicity against human MCF7 cells assessed as growth inhibition after 48 hrs by sulforhodamine B assay; conditions: MCF7, 48 h
U-251 [22] = test: Cytotoxicity against human U251 cells assessed as cell growth at 100 uM after 48 hrs by sulforhodamine B assay relative to control; conditions: U-251, 48 h, read-out: Activity
SNB-19 [23] = test: Cytotoxicity against human SNB19 cells assessed as cell growth at 10 uM after 48 hrs by sulforhodamine B assay relative to control; conditions: SNB-19, 48 h, read-out: Activity
OVCAR-5 = test: Cytotoxicity against human OVCAR5 cells assessed as cell growth at 0.1 uM after 48 hrs by sulforhodamine B assay relative to control; conditions: OVCAR-5, 48 h, read-out: Activity

SMILES: COc1ccc(C(=O)/C=C/c2cc(-c3cc(OC)c(OC)c(OC)c3)n[nH]2)cc1
- growth at 1 µM (Hs-578T): 96%
- growth at 1 µM (UO-31): 77%
- growth at 0.1 µM (HL-60(TB) [1]): 108%
- LC50 (concentration killing 50% of cells) (CCRF-CEM): > 100 µM
- TGI (CCRF-CEM): 5.85 µM
- LC50 (OVCAR-3 [2]): 7.27 µM
- TGI (OVCAR-3 [2]): 3.56 µM
- growth at 0.1 µM (SNB-19 [3]): 88%
- growth at 1 µM (A549 [4]): 86%
- growth at 100 µM (SK-OV-3): -41%
- growth at 0.01 µM (Malme-3M): 95%
- growth at 100 µM (T47D [5]): -9%
- growth at 0.1 µM (RPMI-8226 [6]): 90%
- growth at 1 µM (RPMI-8226 [7]): 27%
- growth at 0.1 µM (COLO 205): 101%
- growth at 10 µM (SN12C [8]): -69%
- growth at 10 µM (A549 [9]): -15%
- growth at 0.01 µM (SK-MEL-28): 105%
- growth at 0.01 µM (A498): 98%
- growth at 1 µM (HL-60(TB) [10]): 99%
- TGI (MOLT-4): 6.82 µM
- CC50 (MOLT-4): > 100 µM
- growth at 0.1 µM (PC-3): 95%
- growth at 0.01 µM (RPMI-8226 [11]): 98%
- LC50 (HL-60(TB) [12]): > 100 µM
- TGI (HL-60(TB) [12]): 4.78 µM
- growth at 0.1 µM (T47D [13]): 93%
- growth at 100 µM (OVCAR-3 [14]): -69%
- growth at 1 µM (SN12C [15]): 91%
- LC50 (IGROV-1 [16]): > 100 µM
- TGI (IGROV-1 [16]): 4.81 µM
- growth at 0.01 µM (NCI/ADR-RES): 102%
- growth at 10 µM (U-251 [17]): -98%
- growth at 10 µM (IGROV-1 [18]): -47%
- growth at 0.1 µM (A549 [19]): 101%
- growth at 100 µM (NCI-H322M): -31%
- growth at 0.1 µM (MCF7 [20]): 93%
- growth at 0.01 µM (NCI-H522): 83%
- LC50 (MCF7 [21]): 7.61 µM
- TGI (MCF7 [21]): 2.96 µM
- growth at 100 µM (U-251 [22]): -25%
- growth at 10 µM (SNB-19 [23]): -85%
- growth at 0.1 µM (OVCAR-5): 97%

SMILES: COc1cc(C(=O)/C=C/c2cc(-c3cc(OC)c(OC)c(OC)c3)n[nH]2)cc(OC)c1OC
- growth at 1 µM (Hs-578T): 80%
- growth at 1 µM (UO-31): 62%
- growth at 0.1 µM (HL-60(TB) [1]): 101%
- LC50 (concentration killing 50% of cells) (CCRF-CEM): > 100 µM
- LC50 (OVCAR-3 [2]): 5.79 µM
- TGI (OVCAR-3 [2]): 3.18 µM
- growth at 0.1 µM (SNB-19 [3]): 90%
- growth at 1 µM (A549 [4]): 84%
- growth at 100 µM (SK-OV-3): -100%
- growth at 0.01 µM (Malme-3M): 100%
- growth at 100 µM (T47D [5]): -92%
- growth at 0.1 µM (RPMI-8226 [6]): 83%
- growth at 1 µM (RPMI-8226 [7]): 17%
- growth at 0.1 µM (COLO 205): 102%
- growth at 10 µM (SN12C [8]): -86%
- growth at 10 µM (A549 [9]): 6%
- growth at 0.01 µM (SK-MEL-28): 101%
- growth at 0.01 µM (A498): 95%
- growth at 1 µM (HL-60(TB) [10]): 81%
- TGI (MOLT-4): 8.95 µM
- CC50 (MOLT-4): > 100 µM
- growth at 0.1 µM (PC-3): 92%
- growth at 0.01 µM (RPMI-8226 [11]): 97%
- LC50 (HL-60(TB) [12]): > 100 µM
- TGI (HL-60(TB) [12]): 5.52 µM
- growth at 0.1 µM (T47D [13]): 92%
- growth at 100 µM (OVCAR-3 [14]): -98%
- growth at 1 µM (SN12C [15]): 78%
- LC50 (IGROV-1 [16]): 33.1 µM
- TGI (IGROV-1 [16]): 10.2 µM
- growth at 0.01 µM (NCI/ADR-RES): 105%
- growth at 10 µM (U-251 [17]): -94%
- growth at 10 µM (IGROV-1 [18]): 1%
- growth at 0.1 µM (A549 [19]): 94%
- growth at 100 µM (NCI-H322M): -99%
- growth at 0.1 µM (MCF7 [20]): 95%
- growth at 0.01 µM (NCI-H522): 101%
- LC50 (MCF7 [21]): 5.22 µM
- TGI (MCF7 [21]): 2.07 µM
- growth at 100 µM (U-251 [22]): -99%
- growth at 10 µM (SNB-19 [23]): -62%
- growth at 0.1 µM (OVCAR-5): 101%
